Measurements reported in US5143911A, “Antibiotic C-3 di-hydroxyphenyl substituted cephalosporin compounds, compositions and method of use thereof” (Bristol-Myers Squibb Company, priority 1990, dated 1992).
≈ marks a conversion by molar mass, not a printed value. Where two headings read alike, the source gives them in different places.

How the values were obtained:
S. epidermidis 11-1168 = type: cell-based; details: Staphylococcus epidermidis, 111168, pH 7.2, 32° C. 18 hr, 10^6 cells/ml
P. acnes A 21933 = test: In vitro activity against anaerobes (MIC); type: cell-based; details: Cutibacterium acnes, A21933, Gp
K. pneumoniae PCI 602 = details: Klebsiella pneumoniae, PCI602, 18 h, pH 7.2
S. aureus Smith [1] = details: Staphylococcus aureus, 18 h, pH 7.2
C. difficile A 21675 = test: In vitro activity against anaerobes (MIC); type: cell-based; details: Clostridioides difficile, A21675, Gp, Clindamycin-resistant
C. freundii GN 7391 = details: Citrobacter freundii, GN7391, 18 h, pH 7.2
B. fragilis A 22693 = test: In vitro activity against anaerobes (MIC), two-fold serial agar dilution, GAM agar; type: cell-based; details: Bacteroides fragilis, A22693, Gn, Beta-Lactamase(-)
X. maltophilia GN 12873 = details: Stenotrophomonas maltophilia, GN12873, 18 h, pH 7.2
B. fragilis A 22534 = test: In vitro activity against anaerobes (MIC), two-fold serial agar dilution, GAM agar; type: cell-based; details: Bacteroides fragilis, A22534, Gn, Beta-Lactamase(+)
S. aureus Smith [2] = test: MIC against the infecting organism (Table 2); details: Staphylococcus aureus
S. aureus Smith [3] = details: Staphylococcus aureus, in Mus musculus, im, read-out: PD50
P. aeruginosa 9843A = test: MIC against the infecting organism (Table 2); details: Pseudomonas aeruginosa
B. fragilis A 22533 = test: In vitro activity against anaerobes (MIC), two-fold serial agar dilution, GAM agar; type: cell-based; details: Bacteroides fragilis, A22533, Gn, Beta-Lactamase(+)
X. maltophilia No. 661 = details: Stenotrophomonas maltophilia, NO.661, 18 h, pH 7.2
S. aureus 4-1015 (MRSA) = details: Staphylococcus aureus, 18 h, pH 7.2
S. marcescens IPM-15 = details: Serratia marcescens, IPM15, 18 h, pH 7.2
E. coli Juhl = test: MIC against the infecting organism (Table 2); details: Escherichia coli
P. vulgaris IPM-13 = type: cell-based; details: Proteus vulgaris, IPM13, pH 7.2, 32° C. 18 hr, 10^6 cells/ml
B. fragilis CUH-108 = test: In vitro activity against anaerobes (MIC), two-fold serial agar dilution, GAM agar; type: cell-based; details: Bacteroides fragilis, CUH108, Gn, Beta-Lactamase(+), Clindamycin-resistant
Method: In vitro activity against anaerobic bacteria was determined on eight strains of B. fragilis by two-fold serial agar dilution method in GAM agar.

P. aeruginosa KKA 19 = details: Pseudomonas aeruginosa, KKA19, 18 h, pH 7.2
S. epidermidis 11-1230 = details: Staphylococcus epidermidis, 111230, 18 h, pH 7.2

## CO/N=C(\C(=O)NC1C(=O)N2C(C(=O)O)=C(/C=C/COC(=O)c3ccc(O)c(O)c3)CS[C@H]12)c1csc(N)n1 (stereo partly drawn) [Ia, 7-[(Z)-2-(2-Aminothiazol-4-yl)-2-methoxyiminoacetamido]-3-[(E)-3-(3,4-dihydroxybenzoyloxy)-1-propen-1-yl]-3-cephem-4-carboxylic acid]
S. epidermidis 11-1168
  MIC: 3.1 µg/mL (≈ 5.39 µM)
P. acnes A 21933
  MIC: 0.4 µg/mL (≈ 0.695 µM)
K. pneumoniae PCI 602
  MIC: < 6.3 ng/mL
S. aureus Smith [1]
  MIC: 1.6 µg/mL (≈ 2.78 µM)
C. difficile A 21675
  MIC: 12.5 µg/mL (≈ 21.7 µM)
C. freundii GN 7391
  MIC: 12.5 µg/mL (≈ 21.7 µM)
B. fragilis A 22693
  MIC: 0.8 µg/mL (≈ 1.39 µM)
X. maltophilia GN 12873
  MIC: 50 µg/mL (≈ 86.9 µM)
B. fragilis A 22534
  MIC: > 50 µg/mL
S. aureus Smith [2]
  MIC: 1.6 µg/mL (≈ 2.78 µM)
S. aureus Smith [3]
  ED50: 0.4 mg/kg
P. aeruginosa 9843A
  MIC: 3.1 µg/mL (≈ 5.39 µM)
B. fragilis A 22533
  MIC: > 50 µg/mL
X. maltophilia No. 661
  MIC: 12.5 µg/mL (≈ 21.7 µM)
S. aureus 4-1015 (MRSA)
  MIC: 12.5 µg/mL (≈ 21.7 µM)
S. marcescens IPM-15
  MIC: > 100 µg/mL
E. coli Juhl
  MIC: 0.1 µg/mL (≈ 0.174 µM)
P. vulgaris IPM-13
  MIC: > 100 µg/mL
B. fragilis CUH-108
  MIC: 25 µg/mL (≈ 43.4 µM)
P. aeruginosa KKA 19
  MIC: 50 µg/mL (≈ 86.9 µM)
S. epidermidis 11-1230
  MIC: 3.1 µg/mL (≈ 5.39 µM)
